Assay results taken from patent publication US6863833B1, “Microfabricated apertures for supporting bilayer lipid membranes” (The Board of Trustees of the Leland Stanford Junior …, priority 2001, dated 2005).

How the values were obtained:
[1] = molecular target: staphylococcal α-hemolysin (αHL) channels (Staphylococcus aureus, UniProt P09616); assay type: biochemical
[2] = Gramicidin D conductance change in lipid bilayer formed across nanoaperture; assay type: biochemical; details: 5 to 20 μl of 2 mg/ml gD in ethanol added to each bath; within minutes; capacitance remained constant
Excerpt: Lipid bilayers were formed by the method of Montal and Mueller (1972). In practicing the Langmuir-Blodgett technique, one raises two lipid monolayers across an aperture, allowing the lipids to align their hydrophobic tail portions across the aperture so as to form a lipid bilayer. Because of the hydrophobic nature of the lipid tails, in order to form stable bilayers the surface of a BSP must also be hydrophobic. If the substrate is hydrophobic, the lipids can smoothly transition from coating the substrate to spanning the aperture. To reverse the wetting properties of the naturally hydrophilic silicon nitride, the silicon nitride was coated with an alkylsilane (octyltrichlorosilane). Application of this coating was quite simple and very effective. It was not found to be possible to form a bilayer with untreated devices. Use of longer carbon chain silanes or alternative-materials to make the surface even more hydrophobic would further increase bilayer stability.
For smaller apertures, it was more difficult to observe the capacitance change the background. In this case, membrane-bound proteins that affect the electrical properties of the bilayer, such as carriers and ion channels, offered the best proof of the formation of a bilayer. The ion channel peptide Gramicidin D (gD), was chosen for ease of use and large conductance change. […]

staphylococcal α-hemolysin (αHL) channels, sequence (P09616 27-319 limits assumed): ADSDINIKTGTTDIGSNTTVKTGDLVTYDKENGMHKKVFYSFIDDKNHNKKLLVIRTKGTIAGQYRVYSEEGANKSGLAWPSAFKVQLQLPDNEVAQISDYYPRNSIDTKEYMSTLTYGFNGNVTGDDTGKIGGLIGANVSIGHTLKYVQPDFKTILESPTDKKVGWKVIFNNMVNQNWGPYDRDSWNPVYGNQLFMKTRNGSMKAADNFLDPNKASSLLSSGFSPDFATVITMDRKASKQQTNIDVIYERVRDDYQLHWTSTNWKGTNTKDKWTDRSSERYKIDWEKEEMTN

| Compound | current reduction when a channel becomes blocked [1] [%] | conductance of the bilayer [2] |
| --- | --- | --- |
| OC[C@H]1O[C@@H]2O[C@H]3[C@H](O)[C@@H](O)[C@@H](O[C@H]4[C@H](O)[C@@H](O)[C@@H](O[C@H]5[C@H](O)[C@@H](O)[C@@H](O[C@H]6[C@H](O)[C@@H](O)[C@@H](O[C@H]7[C@H](O)[C@@H](O)[C@@H](O[C@H]8[C@H](O)[C@@H](O)[C@@H](O[C@H]1[C@H](O)[C@H]2O)O[C@@H]8CO)O[C@@H]7CO)O[C@@H]6CO)O[C@@H]5CO)O[C@@H]4CO)O[C@@H]3CO [βCD, β-cyclodextrin] | 70±4 |  |
| Gramicidin D |  | dramatically increased |
